Calls of active or inactive are those of the source. No cut-off for these calls is given here.
Experiments:
HEK293 [1] = test: Down regulation of human STAT3 gene expression in human HEK293 cells cloned with DelQ vector harboring G-quadruplex G-rich sequence deletion at 2 to 10 uM after 24 hrs by luciferase reporter gene assay; assay type: functional, cell-based
Nucleic Acid [2] = test: Binding affinity to STAT3 G-quadruplex in 3'-flanking region 5'-GGGCTGGGGATGGGGAGGGGG-3' assessed as intensity ratio of all complex ions to the sum of all G-quadruplex and complex ions at 20 uM by ESI mass spectroscopy relative to control; assay type: nucleic-acid assay
Nucleic Acid [3] = test: Binding affinity to STAT3 G-quadruplex in rat cardiomyocytes assessed as down regulation of STAT3 gene expression at 10 uM after 48 hrs by RT-PCR analysis; assay type: cell-based
HEK293 [4] = test: Down regulation of human STAT3 gene expression in human HEK293 cells cloned with MutQ vector harboring G-quadruplex GGG to GTG substitution mutation at 2 to 10 uM after 24 hrs by luciferase reporter gene assay; assay type: functional, cell-based
Nucleic Acid [5] = test: Binding affinity to STAT3 G-quadruplex in rat cardiomyocytes assessed as down regulation of STAT3 protein expression at 10 uM after 48 hrs by Western blot analysis; assay type: cell-based
Nucleic Acid [6] = test: Down regulation of human STAT3 gene expression in human HEK293 cells cloned with FRQ vector harboring intact G-quadruplex at 2 to 10 uM after 24 hrs by luciferase reporter gene assay; assay type: cell-based
Nucleic Acid [7] = test: Binding affinity to human VEGF G-quadruplex 5'-GGGGCGGGCCGGGGGCGGGG-3' assessed as the intensity ratio of all complex ions to the sum of all G-quadruplex and complex ions at 20 uM by ESI mass spectroscopy relative to control; assay type: nucleic-acid assay
Nucleic Acid [8] = test: Binding affinity to G-telomeric quadruplex 5'-GGGTTAGGGTTAGGGTTAGGG-3' assessed as the intensity ratio of all complex ions to the sum of all G-quadruplex and complex ions at 20 uM by ESI mass spectroscopy relative to control; assay type: nucleic-acid assay
Nucleic Acid [9] = test: Binding affinity to STAT3 G-quadruplex in 3'-flanking region 5'-GGGCTGGGGATGGGGAGGGGG-3' assessed as melting temperature at 10 uM by UV-Vis spectrophotometry (reference value: 58 degC); assay type: nucleic-acid assay
Nucleic Acid [10] = test: Binding affinity to STAT3 G-quadruplex in 3'-flanking region 5'-GGGCTGGGGATGGGGAGGGGG-3' assessed as melting temperature at 20 uM by UV-Vis spectrophotometry (reference value: 58 degC); assay type: nucleic-acid assay
Nucleic Acid [11] = test: Binding affinity to STAT3 G-quadruplex in 3'-flanking region 5'-GGGCTGGGGATGGGGAGGGGG-3' assessed as melting temperature at 40 uM by UV-Vis spectrophotometry (reference value: 58 degC); assay type: nucleic-acid assay

Compound | inhibition (HEK293 [1]) | Ratio (Nucleic Acid [2]) | Activity (Nucleic Acid [3]) | inhibition (HEK293 [4]) | Activity (Nucleic Acid [5]) | inhibition (Nucleic Acid [6]) | Ratio (Nucleic Acid [7]) | Ratio (Nucleic Acid [8]) | Tm (Nucleic Acid [9]) | Tm (Nucleic Acid [10]) | Tm (Nucleic Acid [11])
C[n+]1ccc(-c2c3nc(c(-c4cc[n+](C)cc4)c4ccc([nH]4)c(-c4cc[n+](C)cc4)c4ccc([nH]4)c(-c4cc[n+](C)cc4)c4nc2C=C4)C=C3)cc1 | inactive | 0.53 | Active | inactive | Active | Active | – | – | – | – | –
COc1ccc2cc1Oc1ccc(cc1)C[C@H]1c3c(cc4c(c3Oc3cc5c(cc3OC)CCN(C)[C@@H]5C2)OCO4)CCN1C | inactive | 0.81 | Active | inactive | Active | Active | 0.26 | 0.47 | 59 °C | 62 °C | 65 °C
COc1cc2c(cc1OC)-c1c(C)c3ccc(OC)c(OC)c3c[n+]1CC2 | – | 0.34 | – | – | – | – | – | – | – | – | –
